This note sets out measurements from ChEMBL document CHEMBL6134893, “The Exploration of Indole-Based LSD1-Targeted Inhibitors for Enhanced Immune Response in Gastric Cancer via the PD-L1/PD-1 Axis” (J Med Chem, 2025).

In one experiment the target is T1, Lysine-specific histone demethylase 1A (Homo sapiens, UniProt O60341). Put plainly: Inhibition of LSD1 in human MKN-45 cells assessed as accumulation of membrane PD-L1 at 2 uM incubated for 5 days. It counts as cell-based. Set-up: scale not given: the % may be the effect or the level left. The conditions noted are these: time 5.0 day.
In the case of `N[C@H]1CC[C@H](N[C@@H]2C[C@H]2c2ccccc2)CC1`, the Activity is 48.5%.

Another experiment deals with T1, Lysine-specific histone demethylase 1A. The experiment is described as follows: Inhibition of recombinant LSD1 (unknown origin) extracted from Escherichia coli BL21 (DE3) using H3K4me2 peptide as substrate in presence of […] by Amplex Red assay.
Conditions: not given
In the case of `C=C1C(=O)OCC1C(O)c1ccn(S(=O)(=O)c2ccc(Br)cc2)c1` (configuration not stated), the IC50 is greater than 10000 nM. Still for that read-out and setting: under `C=C1C(=O)OCC1C(O)c1cn(S(=O)(=O)c2ccc(F)c(C(F)(F)F)c2)c2ccc(Cl)cc12` (configuration not stated) stands 654 nM; under `O=S(=O)(c1ccc(Cl)cc1)n1cc(CNC2CC2)c2cc(Cl)ccc21`, greater than 10000 nM; under `C=C1C(=O)OCC1C(O)c1cn(S(=O)(=O)CCC)c2ccc(Cl)cc12` (configuration not stated), 6650 nM.

Regarding `C=C1C(=O)OCC1C(O)c1cn(S(=O)(=O)c2ccc(N3CCCC(NC(=O)OC(C)(C)C)C3)c([N+](=O)[O-])c2)c2ccc(Cl)cc12` (configuration not stated), the IC50 came out at 714 nM. On the same count and under the same terms, under `C=C1C(=O)OCC1C(O)c1cn(S(=O)(=O)c2ccccc2Cl)c2ccc(Cl)cc12` (configuration not stated) stands 366 nM; under `C=C1C(=O)OCC1C(O)c1cn(S(=O)(=O)c2ccc(N3CCCCC3)c([N+](=O)[O-])c2)c2ccc(Cl)cc12` (configuration not stated), 2130 nM.

Turning to `C=C1C(=O)OCC1C(O)c1cn(S(=O)(=O)c2ccc(CBr)cc2)c2ccc(Cl)cc12` (configuration not stated), the IC50 was determined as 933 nM. Still for that read-out and setting: under `C=C1C(=O)OCC1C(O)c1cn(S(=O)(=O)c2c(Cl)cccc2Cl)c2ccc(Cl)cc12` (configuration not stated) stands 968 nM. Regarding `C=C1C(=O)OCC1C(O)c1cn(S(=O)(=O)c2ccc(N3CCN(C)CC3)c([N+](=O)[O-])c2)c2ccc(Cl)cc12` (configuration not stated), the IC50 is 463 nM.

As to `C=C1C(=O)OCC1C(O)c1cn(S(=O)(=O)c2ccc(Br)cc2)c2ccc(Cl)cc12` (configuration not stated), the IC50 stood at 1150 nM.

Consider `C=C1C(=O)OCC1C(O)c1cn(S(=O)(=O)c2ccc(N3CCCN(C(=O)OC(C)(C)C)CC3)c([N+](=O)[O-])c2)c2ccc(Cl)cc12` (configuration not stated), for which the IC50 came out at 4960 nM. On the same count and under the same terms, under `O=S(=O)(c1ccc(Cl)cc1)n1cc(CNCC2CC2)c2cc(Cl)ccc21` stands greater than 10000 nM; under `C=C1C(=O)OCC1C(O)c1cn(S(=O)(=O)c2ccccc2C)c2ccc(Cl)cc12` (configuration not stated), 261 nM. The same measure, in the same setting: under `C=C1C(=O)OCC1C(O)c1cn(S(=O)(=O)c2ccc(Cl)cc2Cl)c2ccc(Cl)cc12` (configuration not stated) stands 363 nM. For `C=C1C(=O)OCC1C(O)c1cn(S(=O)(=O)c2ccc(CN3CCN(C(=O)OC(C)(C)C)CC3)cc2)c2ccc(Cl)cc12` (configuration not stated), the IC50 was determined as 1180 nM. On the same count and under the same terms, under `C=C1C(=O)OCC1C(O)c1cn(S(=O)(=O)c2ccc(Cl)c(Cl)c2)c2ccc(Cl)cc12` (configuration not stated) stands 579 nM; under `C=C1C(=O)OCC1C(=O)c1cn(S(=O)(=O)c2ccc(Cl)cc2)c2ccc(Cl)cc12` (configuration not stated), greater than 10000 nM; under `C=C1C(=O)OCC1C(O)c1cn(S(=O)(=O)c2ccc(CNCc3ccc(Cl)cc3)cc2)c2ccc(Cl)cc12` (configuration not stated), 2340 nM. The same measure, in the same setting: as for `C=C1C(=O)OC/C1=C\c1cn(S(=O)(=O)c2ccc(Cl)cc2)c2ccc(Cl)cc12`, the figure is greater than 10000 nM; as for `C=C1C(=O)OCC1C(O)c1cn(S(=O)(=O)c2ccc(N3CCN(CCO)CC3)c([N+](=O)[O-])c2)c2ccc(Cl)cc12` (configuration not stated), 284 nM; as for `C=C1C(=O)OCC1C(O)c1cn(S(=O)(=O)c2ccccc2Br)c2ccc(Cl)cc12` (configuration not stated), 161 nM. Consider `C=C1C(=O)OCC1C(O)c1cn(S(=O)(=O)c2ccc(F)cc2)c2ccc(Cl)cc12` (configuration not stated), for which the IC50 is 1340 nM. Same read-out and setting: under `C=C1C(=O)OCC1C(O)c1cn(S(=O)(=O)c2ccc(CN3CCOCC3)cc2)c2ccc(Cl)cc12` (configuration not stated) stands 606 nM.

In the case of `C=C1C(=O)OCC1C(O)c1cn(S(=O)(=O)c2ccc(N3CCN(CC)CC3)c([N+](=O)[O-])c2)c2ccc(Cl)cc12` (configuration not stated), the IC50 was 287 nM. Take `C=C1C(=O)OCC1C(O)c1cn(S(=O)(=O)c2ccc(NC)c([N+](=O)[O-])c2)c2ccc(Cl)cc12` (configuration not stated): the IC50 turned out to be 89 nM. Still for that read-out and setting: under `C=C1C(=O)OCC1C(O)c1ccn(S(=O)(=O)c2ccc(Cl)cc2)c1` (configuration not stated) stands greater than 10000 nM; under `C=C1C(=O)OCC1C(O)c1cn(S(=O)(=O)c2ccc(NCCC)c([N+](=O)[O-])c2)c2ccc(Cl)cc12` (configuration not stated), 664 nM. Turning to `C=C1C(=O)OCC1C(O)c1cn(S(=O)(=O)c2cccc(Cl)c2)c2ccc(Cl)cc12` (configuration not stated), the IC50 came out at 746 nM. With `C=C1C(=O)OCC1C(O)c1cn(S(=O)(=O)c2ccc(N3C[C@@H]4C[C@H]3CN4C(=O)OC(C)(C)C)c([N+](=O)[O-])c2)c2ccc(Cl)cc12` (some centres not stated), the IC50 amounted to 3350 nM. Regarding `C=C1C(=O)OCC1C(O)c1cn(S(=O)(=O)C2CC2)c2ccc(Cl)cc12` (configuration not stated), the IC50 stood at 5680 nM.

For the compound `C=C1C(=O)OCC1C(O)c1cn(S(=O)(=O)c2cccc([N+](=O)[O-])c2)c2ccc(Cl)cc12` (configuration not stated), the IC50 came out at 107 nM. `C=C1C(=O)OCC1C(O)c1cn(S(=O)(=O)c2ccc(Cl)c([N+](=O)[O-])c2)c2ccc(Cl)cc12` (configuration not stated): the IC50 was determined as 99 nM. The same measure, in the same setting: under `C=C1C(=O)OCC1C(O)c1cn(S(=O)(=O)c2ccc(N(CCC)CCC)c([N+](=O)[O-])c2)c2ccc(Cl)cc12` (configuration not stated) stands 3390 nM; under `C=C1C(=O)OCC1C(O)c1cn(S(=O)(=O)c2ccccc2)c2ccc(Cl)cc12` (configuration not stated), 1110 nM; under `C=C1C(=O)OCC1C(O)c1cn(S(=O)(=O)c2ccc(OC(F)(F)F)cc2)c2ccc(Cl)cc12` (configuration not stated), 1420 nM.

For `C=C1C(=O)OCC1C(O)c1cn(S(=O)(=O)c2ccc(Cl)cc2)c2ccc(Cl)cc12` (configuration not stated), the IC50 is 929 nM. As to `C=C1C(=O)OCC1C(O)c1cn(S(=O)(=O)c2ccc(NCC(C)C)c([N+](=O)[O-])c2)c2ccc(Cl)cc12` (configuration not stated), the IC50 came to 131 nM. On the same count and under the same terms, as for `C=C1C(=O)OCC1C(O)c1ccn(S(=O)(=O)c2ccc(C)cc2)c1` (configuration not stated), the figure is greater than 10000 nM; as for `C=C1C(=O)OCC1C(O)c1cn(S(=O)(=O)c2ccc(OC)cc2)c2ccc(Cl)cc12` (configuration not stated), 855 nM.

Take `C=C1C(=O)OCC1C(O)c1cn(S(=O)(=O)c2ccc([N+](=O)[O-])cc2)c2ccc(Cl)cc12` (configuration not stated): the IC50 is 1380 nM. Still for that read-out and setting: as for `C=C1C(=O)OCC1C(O)c1cn(S(=O)(=O)c2ccc(N3CCC(NC(=O)OC(C)(C)C)C3)c([N+](=O)[O-])c2)c2ccc(Cl)cc12` (configuration not stated), the figure is 440 nM; as for `C=C1C(=O)OCC1C(O)c1cn(S(=O)(=O)c2ccc(N3CCCC3)c([N+](=O)[O-])c2)c2ccc(Cl)cc12` (configuration not stated), 2480 nM; as for `C=C1C(=O)OCC1C(O)c1cn(S(=O)(=O)c2cccc(C(F)(F)F)c2)c2ccc(Cl)cc12` (configuration not stated), 213 nM. Still for that read-out and setting: as for `C=C1C(=O)OCC1C(O)c1cn(S(=O)(=O)c2ccc(Cl)c(N)c2)c2ccc(Cl)cc12` (configuration not stated), the figure is greater than 5000 nM; as for `C=C1C(=O)OCC1C(O)c1cn(S(=O)(=O)c2ccc(C(F)(F)F)cc2)c2ccc(Cl)cc12` (configuration not stated), 1460 nM.

On to `C=C1C(=O)OCC1C(O)c1cn(S(C)(=O)=O)c2ccc(Cl)cc12` (configuration not stated), for which the IC50 amounted to 9130 nM. On to `C=C1C(=O)OCC1C(O)c1cn(S(=O)(=O)c2ccccc2[N+](=O)[O-])c2ccc(Cl)cc12` (configuration not stated), for which the IC50 was determined as 755 nM. As to `C=C1C(=O)OCC1C(O)c1cn(S(=O)(=O)c2ccc(N3CCN(C(=O)OC(C)(C)C)CC3)c([N+](=O)[O-])c2)c2ccc(Cl)cc12` (configuration not stated), the IC50 was 459 nM. Same read-out and setting: as for `C=C1C(=O)OCC1C(O)c1cn(S(=O)(=O)c2ccccc2F)c2ccc(Cl)cc12` (configuration not stated), the figure is 219 nM.

The target of a further experiment is Lysine-specific histone demethylase 1A (Mus musculus) (UniProt Q6ZQ88). The experiment is described as follows: Inhibition of LSD1 in mouse MFC cells assessed as accumulation of membrane PD-L1 at 2 uM incubated for 5 days. It counts as cell-based. Set-up: scale not given: the % may be the effect or the level left. The conditions noted are these: time 5.0 day.
As for `N[C@H]1CC[C@H](N[C@@H]2C[C@H]2c2ccccc2)CC1`, the Activity amounted to 40.4%.

Usually IC50 stands for the concentration needed to halve the response being measured.
